Measured values published in PubChem BioAssay (NCI).
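48-hour exposure; five concentrations; linearly interpolated endpoints. The concentration for full growth arrest is given as TGI.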

Tests used:
Assay in all cases: growth of human tumour cells (NCI), 48 h
[1] = tested on: TK-10 renal
[2] = tested on: HT29 colon
[3] = tested on: MOLT-4 leukemia
[4] = tested on: UACC-257 melanoma
[5] = tested on: HCC-2998 colon
[6] = tested on: A549 NSCLC
[7] = tested on: DMS 273 small cell lung
[8] = tested on: SF-539 CNS
[9] = tested on: CAKI-1 renal
[10] = tested on: NCI-H460 lung
[11] = tested on: DMS 114 small cell lung
[12] = tested on: MALME-3M melanoma
[13] = tested on: OVCAR-5 ovarian
[14] = tested on: LXFL 529 NSCLC
[15] = tested on: ACHN renal
[16] = tested on: RPMI-8226 leukemia
[17] = tested on: OVCAR-8 ovarian
[18] = tested on: SK-MEL-28 melanoma
[19] = tested on: IGROV1 ovarian
[20] = tested on: SK-OV-3 ovarian
[21] = tested on: SNB-78 CNS
[22] = tested on: SR leukemia
[23] = tested on: NCI-H522 lung
[24] = tested on: HOP-92 NSCLC
[25] = tested on: SNB-75 CNS
[26] = tested on: SK-MEL-5 melanoma
[27] = tested on: SF-268 CNS
[28] = tested on: EKVX NSCLC
[29] = tested on: COLO 205 colon
[30] = tested on: U251 CNS
[31] = tested on: UO-31 renal
[32] = tested on: OVCAR-3 ovarian
[33] = tested on: 786-0 renal
[34] = tested on: SK-MEL-2 melanoma
[35] = tested on: HOP-18 NSCLC
[36] = tested on: SF-295 CNS
[37] = tested on: A498 renal
[38] = tested on: KM12 colon
[39] = tested on: DLD-1 colon
[40] = tested on: HCT-116 colon
[41] = tested on: NCI-H226 lung
[42] = tested on: OVCAR-4 ovarian
[43] = tested on: K-562 leukemia
[44] = tested on: NCI-H23 lung
[45] = tested on: XF 498 CNS
[46] = tested on: HL-60(TB) leukemia
[47] = tested on: CCRF-CEM leukemia
[48] = tested on: RXF 393 renal
[49] = tested on: M14 melanoma
[50] = tested on: KM20L2 colon
[51] = tested on: SNB-19 CNS
[52] = tested on: M19-MEL melanoma
[53] = tested on: SN12C renal
[54] = tested on: HOP-62 NSCLC
[55] = tested on: UACC-62 melanoma
[56] = tested on: HCT-15 colon
[57] = tested on: LOX IMVI melanoma

`O=C(c1nc2ccc(Cl)cc2[nH]c1=O)C(O)c1cccc([N+](=O)[O-])c1` (configuration not stated) showed a TGI [1] greater than 100 µM, a TGI [2] of 40.4 µM and a TGI [3] greater than 100 µM. For the same compound, the TGI [4] was greater than 100 µM, the TGI [5] was greater than 100 µM and the TGI [6] was greater than 100 µM. It also gave a TGI [7] greater than 100 µM, a TGI [8] greater than 100 µM and a TGI [9] greater than 100 µM. The TGI [10] was greater than 100 µM, the TGI [11] was 17.6 µM and the TGI [12] was greater than 100 µM. For the same compound, the TGI [13] was greater than 100 µM, the TGI [14] was greater than 100 µM and the TGI [15] was greater than 100 µM. It also gave a TGI [16] greater than 100 µM, a TGI [17] greater than 100 µM and a TGI [18] of 61.5 µM. It also gave a TGI [19] greater than 100 µM, a TGI [20] greater than 100 µM and a TGI [21] greater than 100 µM. For the same compound, the TGI [22] was greater than 100 µM, the TGI [23] was greater than 100 µM and the TGI [24] was greater than 100 µM. The TGI [25] was greater than 100 µM, the TGI [26] was greater than 100 µM and the TGI [27] was 81.5 µM. For the same compound, the TGI [28] was greater than 100 µM, the TGI [29] was greater than 100 µM and the TGI [30] was greater than 100 µM. The TGI [31] was greater than 100 µM, the TGI [32] was greater than 100 µM and the TGI [33] was greater than 100 µM. The TGI [34] was greater than 100 µM, the TGI [35] was greater than 100 µM and the TGI [36] was greater than 100 µM. For the same compound, the TGI [37] was greater than 100 µM, the TGI [38] was greater than 100 µM and the TGI [39] was greater than 100 µM. The TGI [40] was greater than 100 µM, the TGI [41] was greater than 100 µM and the TGI [42] was greater than 100 µM. The TGI [43] was greater than 100 µM, the TGI [44] was greater than 100 µM and the TGI [45] was greater than 100 µM. It also gave a TGI [46] of 74.1 µM, a TGI [47] greater than 100 µM and a TGI [48] greater than 100 µM. The TGI [49] was greater than 100 µM, the TGI [50] was greater than 100 µM and the TGI [51] was greater than 100 µM. It also gave a TGI [52] greater than 100 µM, a TGI [53] greater than 100 µM and a TGI [54] greater than 100 µM. It also gave a TGI [55] greater than 100 µM, a TGI [56] greater than 100 µM and a TGI [57] of 40 µM.
